According to the NIST ThermoML archive (doi:10.1016/j.jct.2007.06.009):

Experiments:
[1] = xn = mol fraction of the nth substance listed; settings: 303.15 K, 101 kPa, Liquid
[2] = refractive index (Na D-line) (dimensionless); xn = mol fraction of the nth substance listed; settings: 303.15 K, 101 kPa, Liquid, Standard Abbe refractometry
[3] = excess molar enthalpy (molar enthalpy of mixing); xn = mol fraction of the nth substance listed; settings: 303 K, 101 kPa, Liquid
[4] = 303.15 K; 101 kPa; Liquid
[5] = refractive index (Na D-line) (dimensionless); settings: 303.15 K; 101.33 kPa; Liquid; Standard Abbe refractometry

CCC(C)=O [butanone] + CCCCO
Settings	excess molar enthalpy [kcal/mol]	mass density [kg/m3]	refractive index	viscosity [mPa·s]
[1], x2 = 0	–	794.5	–	0.347
[1], x2 = 0.0704	–	–	–	0.364
[1], x2 = 0.0765	–	795	–	–
[1], x2 = 0.1392	–	795.4	–	–
[1], x2 = 0.1468	–	–	–	0.388
[1], x2 = 0.2097	–	795.9	–	–
[1], x2 = 0.2163	–	–	–	0.421
[1], x2 = 0.2775	–	796.4	–	–
[1], x2 = 0.2818	–	–	–	0.455
[1], x2 = 0.3429	–	–	–	0.479
[1], x2 = 0.3488	–	796.9	–	–
[1], x2 = 0.4244	–	–	–	0.553
[1], x2 = 0.442	–	797.6	–	–
[1], x2 = 0.4933	–	798	–	–
[1], x2 = 0.4988	–	–	–	0.615
[1], x2 = 0.5008	–	798.1	–	–
[1], x2 = 0.5577	–	798.5	–	–
[1], x2 = 0.5755	–	–	–	0.704
[1], x2 = 0.6404	–	799.2	–	–
[1], x2 = 0.6474	–	799.3	–	0.813
[1], x2 = 0.7105	–	–	–	0.925
[1], x2 = 0.7257	–	799.9	–	–
[1], x2 = 0.7799	–	–	–	1.091
[1], x2 = 0.7944	–	800.5	–	–
[1], x2 = 0.8562	–	801	–	–
[1], x2 = 0.8596	–	–	–	1.342
[1], x2 = 0.9263	–	–	–	1.645
[1], x2 = 0.9307	–	801.6	–	–
[2], x2 = 0	–	–	1.37383	–
[2], x2 = 0.0765	–	–	1.37557	–
[2], x2 = 0.1392	–	–	1.37702	–
[2], x2 = 0.2097	–	–	1.37867	–
[2], x2 = 0.2775	–	–	1.3802	–
[2], x2 = 0.3488	–	–	1.3819	–
[2], x2 = 0.442	–	–	1.38402	–
[2], x2 = 0.4933	–	–	1.38514	–
[2], x2 = 0.5008	–	–	1.38533	–
[2], x2 = 0.5577	–	–	1.3866	–
[2], x2 = 0.6404	–	–	1.38835	–
[2], x2 = 0.6474	–	–	1.38848	–
[2], x2 = 0.7257	–	–	1.39011	–
[2], x2 = 0.7944	–	–	1.39145	–
[2], x2 = 0.8562	–	–	1.3926	–
[2], x2 = 0.9307	–	–	1.39387	–
[3], x2 = 0	0	–	–	–
[3], x2 = 0.134	0.154	–	–	–
[3], x2 = 0.193	0.22	–	–	–
[3], x2 = 0.289	0.281	–	–	–
[3], x2 = 0.35	0.324	–	–	–
[3], x2 = 0.425	0.352	–	–	–
[3], x2 = 0.514	0.351	–	–	–
[3], x2 = 0.619	0.337	–	–	–
[3], x2 = 0.7	0.293	–	–	–
[3], x2 = 0.769	0.268	–	–	–
[3], x2 = 0.82	0.203	–	–	–
[3], x2 = 0.911	0.141	–	–	–

CCC(C)=O [butanone]
Settings	mass density [kg/m3]	refractive index	viscosity [mPa·s]
[4]	794.5	–	0.347
[5]	–	1.37383	–

CCCCO [butan-1-ol] + CCC(C)=O
x1 = 1
Settings	excess molar enthalpy [kcal/mol]	mass density [kg/m3]	refractive index	viscosity [mPa·s]
[1]	–	802.2	–	2.195
[2]	–	–	1.39479	–
[3]	0	–	–	–

CCCCO [butan-1-ol]
Settings	mass density [kg/m3]	refractive index	viscosity [mPa·s]
[4]	802.2	–	2.195
[5]	–	1.39479	–
